Structures are written as SMILES. Where a SMILES comes first, the peptide text is derived from it. The star is where a group is joined. Cbz = O=C(OCc1ccccc1)*; CH2F = FC*

Holding throughout (type): in vivo, mouse
In assay [1] the test system is retinal ganglion cells (RGCs). As to the kind of experiment: Transmission electron microscopy (TEM) quantification of apoptotic and necrotic RGC death after ON injury. The protocol: In addition, the morphology of RGC death was assessed by transmission electron microscopy (TEM) as previously described (Trichonas et al., (2010) PROC NATL ACAD SCI USA)). Specifically, the eyes were enucleated, and the posterior segments were fixed in 2.5% glutaraldehyde and 2% paraformaldehyde in 0.1 M cacodylate buffer with 0.08 M CaCl2 at 4° C. The eyes were post-fixed for 1.5 hours in 2% aqueous OsO4, dehydrated in ethanol and water, and embedded in EPON. Ultrathin sections were cut from blocks and stained with saturated, aqueous uranyl acetate and Sato's lead stain. […] More than 50 RGCs per eye were photographed and subjected to quantification of cell death in a masked fashion. RGCs showing cellular shrinkage and nuclear condensation were defined as apoptotic cells, and RGCs associated with cellular and organelle swelling and discontinuities in nuclear and plasma membrane were defined as necrotic cells. Electron dense granular materials were labeled simply as end-stage unclassified cell death. Autophagosome was defined as a double- or multi-membraned structure containing cytoplasmic material and/or organelles, and autolysosome was defined as cytoplasmic vesicle containing electron dense degraded material, as previously described (Eskelinen, 2008).
RGC death was categorized into apoptosis, necrosis and unclassified end-stage of death, as previously described (Trichonas et al., (2010) PROC NATL ACAD SCI USA). […] Co-administration of ZVAD and Nec-1 led to a substantial decrease of both apoptotic and necrotic RGC death (% apoptotic cells: 4.2±5.1%, necrotic cells: 9.8±6.6%, unclassified: 1.8±1.8%, P<0.01; FIGS. 4C and 4D).
To identify the RGC death mode seen after ON injury transmission electron microscopy (TEM) studies was performed as previously described. RGCs that were unable to be classified were defined as end-stage cell death/unclassified. […] RGCs contained tubular sacs of rough endoplasmic reticulum (rER) surrounded by large numbers of ribosomes (Nissl bodies). Mitochondria were identified as round or oval double-membrane structures with characteristic cristae. In addition, the cytoplasm contained elements of Golgi apparatus (GA), free ribosomes and microtubules sectioned at various angles. A large round nucleus, surrounded by a double-layered nuclear membrane, contained homogeneously dispersed karyoplasm (chromatin material) and one or two electron dense nucleoli (FIG. 8A) (Saggu et al., (2010) BMC NEUROSCI 11:97)). After ON injury, RGC death through apoptosis was predominant.

A further assay deals with TNF-α. In words: TNF-α level in the retina after ON injury (quantitative real-time RT-PCR). As to conditions: one day after ON injury; intravitreal Z-VAD (300 uM) and/or Nec-1 (400 uM). How it is done: (§1) Total RNA extraction, cDNA synthesis and PCR amplification have been performed as previously reported (Kayama et al., (2010) OPHTHALMIC RES 43:79-91). A real-time PCR assay was performed with Prism 7700 Sequence Detection System (Applied Biosystems, Foster City, Calif.). The primers are shown below in Table 1.
(§2) For relative comparison of each gene, the Ct value of real-time PCR data was analyzed with the ΔΔCt method and normalized to an endogenous control ([…].
To investigate whether TNF-α is involved in RGC cell death in mice subjected to optic nerve (ON) injury (induced by physical injury to the optic nerve), TNF-α level in the retina was measured using quantitative real-time RT-PCR. As depicted in FIG. 2A, at one day after ON injury, TNF-α mRNA levels increased almost 10- to 13-fold relative to non-injured mice.
On the technique in general: Real-time PCR tracks product formation cycle by cycle.

For a further assay, the system named is Atg5, 7 and 12. As to the kind of experiment: Atg5, Atg7 and Atg12 expression after ON injury (quantitative RT-PCR). Particulars: one day after ON injury; compared with vehicle treatment. How it is done: as §1, §2
To investigate whether autophagy influences RGC death after ON injury, expression of several genes critical for autophagosome formation including Atg5, 7 and 12 was measured by quantitative RT-PCR. […] In contrast, administration of ZVAD plus Nec-1, or Rip3 deficiency suppressed expression of Atg5, 7 and 12 transcripts (FIGS. 9A-9C).

For assay [2], the system named is retinal ganglion cells (RGCs). As to the kind of experiment: IPL thickness and GCL with IPL thickness after ON injury (immunohistochemistry, SD-OCT). Particulars: RIP3−/− mice; one week after ON injury. How it is done:
An anti-TNF-α neutralizing antibody (0.1 mg/ml) or a control antibody was injected into the vitreous of mice that underwent ON injury. One week following injection, the number of RGCs were measured. In addition, inner plexiform layer (IPL) thickness (a location of RGC axons) was also assessed. Specifically, eyes were enucleated and RGC loss was quantified from histological sections of mouse retina. Only transverse sections involving the optic disc were used for analysis and the fields corresponding to approximately 400 μm of both sides of retina extending from the ON head (2 points/section×3 sections per eye, n=6) were examined with an optical microscope (×40 objectives). IPL thickness was measured with OpenLab software (Open Lab, Florence, Italy) (2 points/section×3 sections per eye, n=6). The ratio of IPL thickness was calculated as a percentage of IPL thickness in the normal mouse eyes (n=6).
Inner plexiform layer (IPL) thickness and ganglion cell layer (GCL) with IPL thickness (location of RGC cell bodies and axons) were measured using immunohistochemistry and a Spectral Domain Optical Coherence Tomography (SD-OCT) system (Bioptigen Inc., Durham, N.C.). […] The thickness of GCL+IPL was assessed at 500 μm, 400 μm, 300 μm distance from the ON head (nasally and temporally) as well as at 200 μm, 400 μm above and below the ON head.

The next assay has as its system LC3-II. As to the kind of experiment: LC3 protein level after ON injury (western blot). Particulars: one day after ON injury. The protocol:
For Western blot analysis, whole retinas were harvested and lysed for 30 min on ice in lysis buffer (50 mM Tris-HCl [pH 8], with 120 mM NaCl and 1% Nonidet P-40), supplemented with a mixture of proteinase inhibitors (Complete Mini; Roche Diagnostics, Basel, Switzerland). Thirty micrograms of protein per sample were separated in a 4-20% gradient sodium dodecyl sulfate-polyacrylamide gel (SDS-PAGE) (Invitrogen Corporation, Carlsbad, Calif., USA) electrophoresis and the proteins were electroblotted onto PVDF membranes. After 20 min incubation in blocking solution (Starting Block™ T20, Thermo Scientific, Waltham, Mass.), membranes were incubated with primary antibodies overnight at 4° C. Peroxidase-labeled secondary antibodies (Amersham Pharmacia Biotech, Piscataway, N.J., USA) were used and proteins were visualized with enhanced chemiluminescence technique (Amersham Pharmacia Biotech). Full list of primary antibodies and working concentrations are shown below in Table 2.
Protein levels of LC3, an autophagy marker, were also assessed by western blot analysis.
Background: A western blot detects proteins with antibodies after separation by electrophoresis.

The mark [3] stands for this setting: one day after ON injury, mean±SD.

For the compound `COC(=O)CC(NC(=O)C(C)NC(=O)C(NC(=O)OCc1ccccc1)C(C)C)C(=O)CF` (stereo not drawn) [Z-VAD, Benzyloxycarbonyl-Val-Ala-Asp(OMe)-fluoromethylketone] (Cbz-Val-Ala-Asp(OMe)-CH2F; configuration not given here), the “mode of RGC death, apoptotic versus necrotic (TEM)” value in assay [1] (after ON injury) was “blocked apoptotic cell death and sensitized cells to necrotic cell death”. For the same compound, in assay [1] (setting [3]), the “apoptotic cells (RGC death, TEM)” value was 5.6±3.4%; the “necrotic cells (RGC death, TEM)” value is on record as 30.7±4.9%; the “unclassified end-stage of death (TEM)” value came to 3.4±2.3%. The “increase of TNF-α levels after ON injury” value with TNF-α is recorded as “did not affect”. Moreover, the Atg12 expression result with Atg5, 7 and 12 is given as “further increased”. Besides, the IPL thickness entry in assay [2] is on record as “preservation of IPL thickness”. For the same compound, in the assay with LC3-II, the “protein level of LC3-II” value is listed as “increased more than vehicle”.

The values are drawn from US10617735B2, “Methods and compositions for preserving retinal ganglion cells” (Massachusetts Eye and Ear Infirmary, priority 2010, dated 2020).
